Test results: patent publication US10758511B2, “Stable analogs of CYP450 lipid metabolites and inhibitors of soluble epoxide hydrolase” (Massachusetts Eye and Ear Infirmary, priority 2015, dated 2020)
Converted amounts (≈) assume the structure as drawn. Marks after values point to notes of the source that are not given here. Values belong to the compound of their own block, whether it stands above or below them.

Experiments:
[1] = Formulations of selected inhibitors of sEH (mg/mL); format: physicochemical
Rat sEH = target: T1, Rat sEH (Rattus norvegicus, UniProt P80299); assay: sEH inhibition (IC50), fluorescent substrate CMNPC; format: biochemical; conditions: CMNPC as a substrate; ureas found in Brassicales
T1 sequence (P80299 1-554): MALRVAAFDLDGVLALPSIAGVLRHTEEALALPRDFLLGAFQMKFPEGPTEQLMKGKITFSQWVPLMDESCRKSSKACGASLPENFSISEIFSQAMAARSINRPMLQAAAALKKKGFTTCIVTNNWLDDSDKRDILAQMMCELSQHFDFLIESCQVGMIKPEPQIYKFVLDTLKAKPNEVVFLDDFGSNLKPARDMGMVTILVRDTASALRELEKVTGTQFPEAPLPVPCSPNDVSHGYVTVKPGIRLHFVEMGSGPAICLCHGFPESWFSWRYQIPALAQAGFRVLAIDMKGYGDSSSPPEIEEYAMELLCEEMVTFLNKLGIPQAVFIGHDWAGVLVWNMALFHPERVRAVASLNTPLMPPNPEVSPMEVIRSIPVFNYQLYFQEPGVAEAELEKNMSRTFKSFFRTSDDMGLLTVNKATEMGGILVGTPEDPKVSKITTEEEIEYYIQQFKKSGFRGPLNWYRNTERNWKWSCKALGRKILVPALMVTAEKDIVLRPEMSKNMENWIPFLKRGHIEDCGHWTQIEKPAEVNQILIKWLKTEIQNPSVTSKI

[2] = Solubility in sodium phosphate buffer (pH7.4); format: physicochemical; conditions: pH 7.4, aqueous buffer, Mean ± SD (n = 3)
[3] = sodium phosphate buffer (pH7.4); data from Kitamura et al., (2015); cited from earlier work
[4] = test system: peripheral blood leukocytes (PBLs); assay: Autoperfused microflow chamber assay, leukocyte rolling velocity; format: in vivo, mouse; conditions: chamber coated with ICAM-1 and P-selectin, 50 μg/kg/day i.p., day 3 after CNV induction
Method: A combination of intercellular adhesion molecule 1 (ICAM-1) and P-selectin (R&D Systems), each at a concentration of 5 μg/mL, was used to coat translucent microchambers (0.4×0.04×50 mm, VitroCom) overnight at 4° C. Biocompatible polyester tubing (PE10; Becton Dickinson) was attached to both ends of each microchamber, and the apparatus was subsequently incubated for 1 hour with 0.1% BSA (Sigma-Aldrich) in order to prevent nonspecific leukocyte interaction with the inner surface of the apparatus. The left jugular vein and right carotid artery in an anesthetized mouse were surgically connected to the free ends of both tubes, thus allowing blood to flow from the right carotid artery and into the microchamber (via the inlet tube), and then into the left jugular vein (via the outlet tube) for recirculation. Blood flow rate through the microchamber was controlled via a screw valve on the inlet tube that could change the tube diameter. For continuous blood pressure measurements, three-way connectors were used to embed microtransducers (Harvard Apparatus) before and after the microchamber. Digitizing the analog output from these microtransducers required an A/D converter (ML785 PowerLab/8SP; ADInstruments) linked to a computer running CHART V7 software (ADInstruments). […] A fixed-stage intravital microscope (Leica) with a 63× objective and a monochromic camera (DFC 360 FX; Leica) were used to observe and record leukocyte rolling along immobilized adhesion molecules. Recordings lasted at least 30 s and incorporated ten different fields of view. Using ImageJ software, leukocyte rolling velocity was calculated based on individual cell displacement along the surface of the chamber over time (i.e., Δd/Δt). Flux was calculated as the mean number of leukocytes interacting with the chamber surface per field of view (i.e., average of 10 independent fields of view).
Autoperfused Microflow Chamber assay was used to assess the impact of 17,18-EEQ and 19,20-EDP on systemic leukocyte recruitment during CNV development. The rolling velocity of peripheral blood leukocytes (PBLs) in the circulating blood was measured 3 days post CNV induction, as this reflects the peak of immune cell infiltration in this model.

C57BL/6 mice = assay: Laser-induced CNV model (flat-mount, SD-OCT, fluorescein angiography); format: in vivo, mouse; conditions: for CNV size or severity compared to base line controls: EETs once a day after laser photocoagulation
Description: J Med Chem 54(12):4109-4118).

E-selectin = assay: Real-time PCR of E-selectin mRNA in laser-captured CNV lesions; format: in vivo, mouse; conditions: 50 μg/kg/day i.p., 7 days post CNV induction
Method: Immediately after enucleation, mouse eyes were placed in optimum cutting temperature (OCT) compound and swiftly frozen. Under RNase-free conditions, eyes were cryosectioned (10 μm thickness per section) and mounted on polyethylene naphthalate glass slides (Leica). After dehydrating with washes of 50, 75, and 100% ethanol, the slides were stained with isolectin B4 at a dilution of 1:50 in 1 mM CaCl2. Laser-capture microdissection (Leica LMD 7000 system) was used to isolate chorioretinal vessels in CNV lesions, which were then placed in RNA-stabilizing buffer (RNeasy Micro Kit; Qiagen). […] Real-time PCR was conducted on a StepOne real-time PCR System (Applied Biosystems) with mouse TaqMan expression assays for the following genes (Applied Biosystems): E-selectin (Mm00441278_m1), kam-1 (Mm00516023_m1), and β-actin (Mm00607939_s1). All data were normalized to β-actin cDNA.

Human sEH = target: T2, Human sEH (Homo sapiens, UniProt P34913); assay: sEH inhibition (IC50), fluorescent substrate CMNPC; format: biochemical; conditions: CMNPC as a substrate; ureas found in Brassicales
T2 sequence (P34913 1-555): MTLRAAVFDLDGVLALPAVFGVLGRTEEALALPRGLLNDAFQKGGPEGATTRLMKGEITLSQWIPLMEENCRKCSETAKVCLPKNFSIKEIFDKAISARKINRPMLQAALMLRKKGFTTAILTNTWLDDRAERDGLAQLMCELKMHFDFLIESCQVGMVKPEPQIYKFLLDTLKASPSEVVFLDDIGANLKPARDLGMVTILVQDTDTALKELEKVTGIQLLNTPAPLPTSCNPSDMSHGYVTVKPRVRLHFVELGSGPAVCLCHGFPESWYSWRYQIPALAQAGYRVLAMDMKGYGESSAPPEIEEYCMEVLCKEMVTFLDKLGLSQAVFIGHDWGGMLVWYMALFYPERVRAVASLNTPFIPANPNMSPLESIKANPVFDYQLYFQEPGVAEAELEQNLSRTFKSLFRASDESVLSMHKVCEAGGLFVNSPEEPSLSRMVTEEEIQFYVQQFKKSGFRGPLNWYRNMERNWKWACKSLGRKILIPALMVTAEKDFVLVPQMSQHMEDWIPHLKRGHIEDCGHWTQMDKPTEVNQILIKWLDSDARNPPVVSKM

[5] = C57BL/6 mice, 7 d after CNV induction
[6] = C57BL/6 mice, 50 μg/kg/day i.p. once a day, 7 d after CNV induction

- Formulation (mg/mL) EtOH [1]: 13 mg/mL
- Formulation (mg/mL) PEG400 [1]: 13 mg/mL
- Formulation (mg/mL) Trioleate [1]: 1.25 mg/mL
Compound: CCCCS(=O)(=O)N1CCC(NC(=O)Nc2ccc(C(F)(F)F)cc2)CC1

- IC50 (Rat sEH): 385 nM
- solubility [2]: 43 ± 5 µM (≈ 10.3 µg/mL)
Compound: O=C(NCc1ccccc1)NCc1ccccc1 [Compound 1]

- Formulation (mg/mL) EtOH [1]: 20 mg/mL
- Formulation (mg/mL) PEG400 [1]: 20 mg/mL
- Formulation (mg/mL) Trioleate [1]: 0.625 mg/mL
Compound: CC(C)C(=O)N1CCC(NC(=O)Nc2ccc(C(F)(F)F)cc2)CC1

- IC50 (Rat sEH): 218 nM
Compound: COc1ccc(CNC(=O)NCc2ccc(OC)cc2)cc1 [MMU]
- Solubility (μM) [3]: 11 ± 2^c μM

Compound: CCCCC/C=C\C/C=C\CC1OC1C/C=C\CCCC(=O)O (centres unmarked) [8,9-EET, reference compound]
- rolling velocity of PBLs ([4]; PBS 2.30±0.13): 1.14±0.15 μm/s
- CNV size or severity compared to base line controls (C57BL/6 mice; [5]): do not affect

- logP (physchem): 2.6
Compound: CCOCCOCCOCCCCCNC(=O)NC12CC3CC(CC(C3)C1)C2 [AEPU]

- IC50 (Rat sEH): 182 nM
- solubility [2]: 9 ± 4 µM (≈ 2.43 µg/mL)
Compound: COc1ccc(CNC(=O)NCc2ccccc2)cc1 [BMU]

Compound: CCCCC/C=C\C[C@H]1O[C@H]1C/C=C\C/C=C\CCCC(=O)O [11,12-EET]
- rolling velocity of PBLs ([4]; PBS 2.30±0.13): 1.41±0.45 μm/s
- CNV size or severity compared to base line controls (C57BL/6 mice; [5]): do not affect
- mRNA level of E-selectin in CNV lesions compared to PBS injected controls (E-selectin): significant increase

- Formulation (mg/mL) EtOH [1]: 20 mg/mL
- Formulation (mg/mL) PEG400 [1]: 20 mg/mL
- Formulation (mg/mL) Trioleate [1]: 0.625 mg/mL
Compound: O=C(Nc1ccc(C(F)(F)F)cc1)NC1CCC(Oc2ccc(C(=O)O)cc2)CC1 (centres unmarked)

- IC50 (Human sEH): 534 nM
- IC50 (Rat sEH): 308 nM
- solubility [2]: 77 ± 9 µM (≈ 20.8 µg/mL)
Compound: COc1cccc(CNC(=O)NCc2ccccc2)c1 [Compound 2]

Compound: CCC1OC1C/C=C\C/C=C\C/C=C\C/C=C\C/C=C\CCC(=O)O (centres unmarked) [19,20-EDP]
- rolling velocity of PBLs ([4]; PBS 0.94±0.06): 1.44±0.12 μm/s

Compound: CNC(=O)C(=O)NCCCC/C=C\CCCCCCCCCC(=O)O [Compound C21, (Z)-16-(2-(methylamino)-2-oxoacetamido)hexadec-11-enoic acid]
- CNV attenuation compared to EEQ administered alone (C57BL/6 mice; C21 intraperitoneally once a day for 7 days, FIGS. 20A-20C): did not show a significant difference
- CNV size in choroidal flat mounts compared to control vehicle (C57BL/6 mice; [6]): significantly reduced
- CNV size in cross-sectional SD-OCT compared to control vehicle (C57BL/6 mice; [6]): significantly reduced
- vascular leakage in CNV lesions (fluorescein angiography) compared to control vehicle (C57BL/6 mice; [6]): significantly reduced

Compound: CCC1OC1C/C=C\C/C=C\C/C=C\C/C=C\CCCC(=O)O (centres unmarked) [17,18-EEQ, 17,18-epoxyeicosatetraenoic acid]
- rolling velocity of PBLs ([4]; PBS 0.94±0.06): 1.48±0.16 μm/s

- IC50 (Human sEH): 222 nM
- IC50 (Rat sEH): 155 nM
- solubility [2]: 101 ± 37 µM (≈ 30.3 µg/mL)
Compound: COc1cccc(CNC(=O)NCc2cccc(OC)c2)c1 [Compound 3]

Compound: CCCCCC1OC1C/C=C\C/C=C\C/C=C\CCCC(=O)O (centres unmarked) [14,15-EET, reference compound]
- rolling velocity of PBLs ([4]; PBS 2.30±0.13): 1.41±0.11 μm/s
- CNV size or severity compared to base line controls (C57BL/6 mice; [5]): do not affect
